One block for each molecule: values may come before it.
Legend:
[1] = tested on: AKT phosphorylation in cardiomyocytes; assay: Effect of neuregulin peptides on the phosphorylation of AKT in cardiomyocytes (western blot); format: cell-based, rat; details: cardiac cells from left ventricles of neonatal rats, different concentrations, 20 minutes, FIG. 1
Method: To study the effect of synthesized peptides on ErbB2 and ErbB4 signaling in cardiomyocytes, cardiac cells extracted from left ventricles of neonatal rats were used.
Cardiac cells were grown in media with serum for 2 days. After the cells reached about 80% confluence, the media was changed to serum free media. After another 24 hours, different amounts of synthesized neuregulin peptides or neuregulin were added into separate wells containing the cells for 20 minutes. The media was then aspirated and gel loading buffer was added to lyse the cells. The sample was then harvested and loaded into a separate well of gel for electrophoresis and western blot analysis.

ErbB2 receptor = molecular target: T1, ErbB2 receptor (Homo sapiens, UniProt P04626+P21860); assay: Receptor binding: neuregulin-induced ErbB2 phosphorylation in MCF-7 cells (ErbB2 antibody H4 capture, anti-phosphotyrosine ELISA); format: cell-based; details: 20 min at 37° C., concentration achieving 50% of maximum OD value at 450 nm
T1 construct: endogenous in cells; host or cells: MCF-7
Source text: Briefly, the assay measures neuregulin induced ErbB2 activation and phosphorylation on the adherent breast carcinoma cell line, MCF-7. Membrane proteins are solubilized via Triton X-100 lysis and the receptor is captured in ELISA wells coated with ErbB2-specific antibodies (e.g., H4) with no cross-reaction to ErbB3 or ErbB4. The degree of receptor phosphorylation is then quantified by antiphosphotyrosine ELISA.
MCF-7 cells was harvested, counted, pelleted and resuspended into DMEM (with 10% serum and 9 μg/ml insulin) at 5×10^4 cells/ml. 100 μl cell suspension was added to each well of 96 well plate and the plate was incubated at 37° C. overnight. The cells were then washed 3 times with PBS and grew in serum free DMEM for another 24 hours.
ErbB2 antibody H4 (Zensun, anti-ErbB2 monoclonal antibody) was diluted to 6 μg/ml by coating buffer (50 mM Na2CO3—NaHCO3, pH9.6), and added to 96 well plate 50 μl/well. The plate was left at 4° C. overnight to coat with antibody.
DMEM was added to two wells as blank. The plate was incubated at 37° C. for 20 min. The cells were washed once with PBS before adding 100 μl/well lysis buffer (50 mM Hepes, pH 8.0, 150 mM NaCl, 2 mM sodium orthovanadate, 0.01% thimerosal, 1% Triton X-100 and one protease inhibitor cocktail tablet per 25 ml solution) and lysing at 4° C. for 30 min. […]

Molecule: CSCC[C@@H]1NC(=O)[C@H](Cc2ccccc2)NC(=O)[C@@H]2CSSC[C@H](NC(=O)[C@H](CCCCN)NC(=O)[C@@H](NC(=O)[C@H](CC(C)C)NC(=O)[C@H](Cc3c[nH]cn3)NC(=O)[C@@H](N)CO)C(C)C)C(=O)N[C@@H](C)C(=O)N[C@@H](CCC(=O)O)C(=O)N[C@@H](CCCCN)C(=O)N[C@@H](CCC(=O)O)C(=O)N[C@@H](CCCCN)C(=O)N[C@@H]([C@@H](C)O)C(=O)N[C@@H](Cc3ccccc3)C(=O)N[C@@H](CSSC[C@@H](C(=O)N[C@@H](CCCCN)C(=O)N[C@H]3CSSC[C@@H](C(=O)N[C@@H](CCC(N)=O)C(=O)N[C@@H](CC(N)=O)C(=O)N[C@@H](Cc4ccc(O)cc4)C(=O)N[C@H](C(=O)N[C@@H](CCSC)C(=O)N[C@@H](C)C(=O)N[C@@H](CO)C(=O)N[C@@H](Cc4ccccc4)C(=O)N[C@@H](Cc4ccc(O)cc4)C(=O)N[C@@H](CCCCN)C(=O)N[C@@H](C)C(=O)N[C@@H](CCC(=O)O)C(=O)N[C@@H](CCC(=O)O)C(=O)N[C@@H](CC(C)C)C(=O)O)C(C)C)NC(=O)[C@H](CCCNC(=N)N)NC(=O)[C@H](CC(=O)O)NC(=O)CNC(=O)[C@H]([C@@H](C)O)NC(=O)[C@H](Cc4ccccc4)NC(=O)[C@H](CCC(=O)O)NC(=O)[C@H](CC(N)=O)NC(=O)[C@@H]4CCCN4C3=O)NC(=O)[C@H](CC(C)C)NC(=O)[C@H](Cc3ccc(O)cc3)NC(=O)[C@H](CCCNC(=N)N)NC(=O)[C@H](CO)NC(=O)[C@@H]3CCCN3C(=O)[C@H](CC(N)=O)NC(=O)[C@H](CO)NC(=O)[C@H](CC(C)C)NC(=O)[C@H](CC(=O)O)NC(=O)[C@H](CCCCN)NC(=O)[C@H](C(C)C)NC1=O)C(=O)N[C@@H](C(C)C)C(=O)N[C@@H](CC(N)=O)C(=O)NCC(=O)NCC(=O)N[C@@H](CCC(=O)O)C(=O)N2 [NRG59]
- effect on AKT phosphorylation compared with NRG [1]: almost have the same effect as NRG

Molecule: CSCC[C@@H]1NC(=O)[C@H](Cc2ccccc2)NC(=O)[C@@H]2CSSC[C@H](NC(=O)[C@H](CCCCN)NC(=O)[C@@H](NC(=O)[C@H](CC(C)C)NC(=O)[C@H](Cc3c[nH]cn3)NC(=O)[C@@H](N)CO)C(C)C)C(=O)N[C@@H](C)C(=O)N[C@@H](CCC(=O)O)C(=O)N[C@@H](CCCCN)C(=O)N[C@@H](CCC(=O)O)C(=O)N[C@@H](CCCCN)C(=O)N[C@@H]([C@@H](C)O)C(=O)N[C@@H](Cc3ccccc3)C(=O)N[C@@H](CSSC[C@@H](C(=O)N[C@@H](CCCCN)C(=O)N[C@H]3CSSC[C@@H](C(=O)N[C@@H](CCC(N)=O)C(=O)N[C@@H](CC(N)=O)C(=O)N[C@@H](Cc4ccc(O)cc4)C(=O)N[C@H](C(=O)N[C@@H](CCSC)C(=O)N[C@@H](C)C(=O)N[C@@H](CO)C(=O)N[C@@H](Cc4ccccc4)C(=O)N[C@@H](Cc4ccc(O)cc4)C(=O)N[C@@H](CCCCN)C(=O)N[C@@H](C)C(=O)N[C@@H](CCC(=O)O)C(=O)O)C(C)C)NC(=O)[C@H](CCCNC(=N)N)NC(=O)[C@H](CC(=O)O)NC(=O)CNC(=O)[C@H]([C@@H](C)O)NC(=O)[C@H](Cc4ccccc4)NC(=O)[C@H](CCC(=O)O)NC(=O)[C@H](CC(N)=O)NC(=O)[C@@H]4CCCN4C3=O)NC(=O)[C@H](CC(C)C)NC(=O)[C@H](Cc3ccc(O)cc3)NC(=O)[C@H](CCCNC(=N)N)NC(=O)[C@H](CO)NC(=O)[C@@H]3CCCN3C(=O)[C@H](CC(N)=O)NC(=O)[C@H](CO)NC(=O)[C@H](CC(C)C)NC(=O)[C@H](CC(=O)O)NC(=O)[C@H](CCCCN)NC(=O)[C@H](C(C)C)NC1=O)C(=O)N[C@@H](C(C)C)C(=O)N[C@@H](CC(N)=O)C(=O)NCC(=O)NCC(=O)N[C@@H](CCC(=O)O)C(=O)N2 [NRG57]
- effect on AKT phosphorylation compared with NRG [1]: almost have the same effect as NRG

Molecule: CSCC[C@@H]1NC(=O)[C@H](Cc2ccccc2)NC(=O)[C@@H]2CSSC[C@H](NC(=O)[C@H](CCCCN)NC(=O)[C@@H](NC(=O)[C@H](CC(C)C)NC(=O)[C@H](Cc3c[nH]cn3)NC(=O)[C@@H](N)CO)C(C)C)C(=O)N[C@@H](C)C(=O)N[C@@H](CCC(=O)O)C(=O)N[C@@H](CCCCN)C(=O)N[C@@H](CCC(=O)O)C(=O)N[C@@H](CCCCN)C(=O)N[C@@H]([C@@H](C)O)C(=O)N[C@@H](Cc3ccccc3)C(=O)N[C@@H](CSSC[C@@H](C(=O)N[C@@H](CCCCN)C(=O)N[C@H]3CSSC[C@@H](C(=O)N[C@@H](CCC(N)=O)C(=O)N[C@@H](CC(N)=O)C(=O)N[C@@H](Cc4ccc(O)cc4)C(=O)N[C@H](C(=O)N[C@@H](CCSC)C(=O)N[C@@H](C)C(=O)N[C@@H](CO)C(=O)N[C@@H](Cc4ccccc4)C(=O)N[C@@H](Cc4ccc(O)cc4)C(=O)N[C@@H](CCCCN)C(=O)O)C(C)C)NC(=O)[C@H](CCCNC(=N)N)NC(=O)[C@H](CC(=O)O)NC(=O)CNC(=O)[C@H]([C@@H](C)O)NC(=O)[C@H](Cc4ccccc4)NC(=O)[C@H](CCC(=O)O)NC(=O)[C@H](CC(N)=O)NC(=O)[C@@H]4CCCN4C3=O)NC(=O)[C@H](CC(C)C)NC(=O)[C@H](Cc3ccc(O)cc3)NC(=O)[C@H](CCCNC(=N)N)NC(=O)[C@H](CO)NC(=O)[C@@H]3CCCN3C(=O)[C@H](CC(N)=O)NC(=O)[C@H](CO)NC(=O)[C@H](CC(C)C)NC(=O)[C@H](CC(=O)O)NC(=O)[C@H](CCCCN)NC(=O)[C@H](C(C)C)NC1=O)C(=O)N[C@@H](C(C)C)C(=O)N[C@@H](CC(N)=O)C(=O)NCC(=O)NCC(=O)N[C@@H](CCC(=O)O)C(=O)N2 [NRG55]
- effect on AKT phosphorylation compared with NRG [1]: much stronger effect than NRG

- EC50 (ErbB2 receptor): 1.439 µg/mL
B1: SHLVKCAEKEKTFCVNGGECFMVKDLSNPSRYLCKCPNEFTGDRCQNYVMASFYKAEELYQ (protein)
chain: SHLVKCAEKEKTFCVNGGECFMVKDLSNPSRYLCKCPNEFTGDRCQNYVMASFYKAEELYQ
modifications: chains of the parent or of the whole protein

- EC50 (ErbB2 receptor): 0.2772 µg/mL
B2: NRG: full length wild type neuregulin β2 peptide (protein)
chain: B1 chain
